Reference: PMC11206525, “Structural Design, Anticancer Evaluation, and Molecular Docking of Newly Synthesized Ni(II) Complexes with ONS-Donor Dithiocarbazate Ligands” (Molecules, 2024)
Where two headings read alike, the source gives them in different places.

Key:
[1] = tested on: non-malignant breast epithelial cell line MCF-10A; experiment: MTT cytotoxicity assay, non-malignant MCF-10A cells; assay type: cell-based, human
Experimental: (§1) The measurement was performed using the MTT assay in cultures treated with increasing concentrations.
(§2) The effect of the compounds applied to breast cancer MCF-7 cells and breast epithelial MCF-10A cells was evaluated by measuring 3-(4,5-dimethylthiazol-2-yl)-2,5-diphenyl tetrazolium bromide (MTT) (Invitrogen, Waltham, MA, USA). All compounds were diluted in dimethylsulfoxide (DMSO) with a final DMSO concentration of 0.01% (0.01 mL/100 mL × 100 = 0.01% means 0.01 mL of DMSO to 99.99 mL of water) in all groups and untreated controls. Cells were seeded in 96-well plates at a density of 5 × 10^3 cells per well and incubated with compounds diluted in serial concentrations ranging from 0.29 µM to 150 µM. After 24, 48, and 72 h at 37 °C and 5% CO2, 10 µL of MTT (5 mg/mL) was added to each well and incubated for 4 h at 37 °C. The supernatant was then removed, and 100 µL/well of DMSO was added to dissolve any deposited formazan. The optical density was measured at 570 nm using a microplate reader (DR-200B-NM_Kasuaki, Tokyo, Japan).

[2] = tested on: human breast cancer cell line MCF-7; experiment: MTT cytotoxicity assay, breast cancer MCF-7 cells; assay type: cell-based; conditions: MCF-7, MTT
Experimental: as §1, §2

the cells tested = tested on: the cells tested; design: method as in doi:10.1016/j.ica.2017.03.027; conditions: related work; cited from earlier work
[3] = read-out: IC50 (Inhibitory Concentration 50%) ± SD at 24 h, 24 h
[4] = read-out: IC50 (Inhibitory Concentration 50%) ± SD at 48 h, 48 h

C=CCSC1=NN=C(C)c2ccccc2[O][Ni]([P](c2ccccc2)(c2ccccc2)c2ccccc2)[S]1 [(1), [Ni(L^1)PPh3]]
IC50 [1, 3]: 25.47 ± 0.031 µM
IC50 [1, 4]: 28.43 ± 0.021 µM
IC50 [2, 3]: 12.82 ± 0.029 µM
IC50 [2, 4]: 22.71 ± 0.016 µM
IC50 ([2]; read-out: IC50 (Inhibitory Concentration 50%) ± SD at 72 h, 72 h): 18.07 ± 0.017 µM

C=CCSC(=S)N/N=C(\C)c1ccccc1O [H2L^1, S-Allyl-2-(2-hydroxyphenyl-ethylidene)dithiocarbazato]
IC50 ([1]; Homo sapiens, read-out: IC50 (Inhibitory Concentration 50%) ± SD at 24 h, 24 h): 65.44 ± 0.034 µM
IC50 ([1]; Homo sapiens, read-out: IC50 (Inhibitory Concentration 50%) ± SD at 48 h, 48 h): 62.86 ± 0.013 µM
IC50 ([1]; Homo sapiens, read-out: IC50 (Inhibitory Concentration 50%) ± SD at 72 h, 72 h): 62.86 ± 0.025 µM
IC50 ([2]; Homo sapiens, MCF7, read-out: IC50 (Inhibitory Concentration 50%) ± SD at 24 h, 24 h): 88.85 ± 0.097 µM
IC50 ([2]; Homo sapiens, MCF7, read-out: IC50 (Inhibitory Concentration 50%) ± SD at 48 h, 48 h): 87.73 ± 0.042 µM
IC50 ([2]; Homo sapiens, MCF7, read-out: IC50 (Inhibitory Concentration 50%) ± SD at 72 h, 72 h): 28.49 ± 0.023 µM
melting point: 116 °C

C/C(=N\NC(=S)SCc1ccccc1)c1ccccc1O [H2L^2, S-Benzyl-2-(2-hydroxyphenyl-ethylidene)dithiocarbazato]
melting point: 145 °C

O.O.O.O.O.O.[Cl][Ni][Cl] [NiCl2⋅6H2O]
effect on cell proliferation or cell viability (the cells tested): no substantial effect
